These compounds were tested against T1, USP28 (His-tagged USP28-FL-mammalian) (Homo sapiens, UniProt Q96RU2) (assay: Ubiquitin-Rhodamine 110 Assay for USP28 Activity, Example A-1(a)). Conditions: Ubiquitin-Rhodamine 110 assay, Example A-1(a); read-out: USP28 A-1(a) IC50 range.
T1 construct: Expression of USP28 (1-1077)-TEV-6*His (pTT5 vector); made in house; host or cells: Expi293f cells (pTT5 vector)
T1 sequence (Q96RU2 1-1077): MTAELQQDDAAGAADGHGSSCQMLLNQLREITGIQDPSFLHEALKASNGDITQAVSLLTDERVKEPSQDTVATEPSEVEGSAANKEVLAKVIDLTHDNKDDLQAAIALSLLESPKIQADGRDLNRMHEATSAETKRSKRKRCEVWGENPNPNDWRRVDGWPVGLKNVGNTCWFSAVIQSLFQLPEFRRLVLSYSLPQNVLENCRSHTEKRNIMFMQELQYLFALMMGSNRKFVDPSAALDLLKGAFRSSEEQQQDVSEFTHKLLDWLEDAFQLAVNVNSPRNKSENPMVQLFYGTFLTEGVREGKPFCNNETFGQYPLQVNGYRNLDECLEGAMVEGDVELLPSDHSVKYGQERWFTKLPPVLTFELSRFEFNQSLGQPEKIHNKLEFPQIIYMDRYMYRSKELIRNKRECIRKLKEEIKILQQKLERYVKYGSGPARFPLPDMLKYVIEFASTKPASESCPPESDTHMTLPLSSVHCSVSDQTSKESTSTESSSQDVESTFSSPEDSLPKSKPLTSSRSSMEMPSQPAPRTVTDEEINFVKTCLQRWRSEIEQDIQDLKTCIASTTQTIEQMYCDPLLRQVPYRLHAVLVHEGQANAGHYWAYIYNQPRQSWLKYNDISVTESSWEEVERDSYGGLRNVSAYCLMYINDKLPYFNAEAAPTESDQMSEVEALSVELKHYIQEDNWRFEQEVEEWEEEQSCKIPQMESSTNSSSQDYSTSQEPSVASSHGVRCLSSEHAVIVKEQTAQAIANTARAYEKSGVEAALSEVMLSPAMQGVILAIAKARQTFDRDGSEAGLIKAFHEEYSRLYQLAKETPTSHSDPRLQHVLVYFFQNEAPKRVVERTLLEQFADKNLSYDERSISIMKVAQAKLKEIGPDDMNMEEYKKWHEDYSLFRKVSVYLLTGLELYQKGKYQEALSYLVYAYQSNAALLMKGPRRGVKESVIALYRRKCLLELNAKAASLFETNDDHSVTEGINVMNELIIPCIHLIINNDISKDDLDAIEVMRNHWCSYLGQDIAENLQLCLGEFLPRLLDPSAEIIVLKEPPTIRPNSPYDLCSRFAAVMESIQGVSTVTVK
Assay type: biochemical
In short: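 Full-length His-tagged human USP28 (1-1077, Expi293f-expressed), […], with 25 nM Ub-Rh110 (<<Km) in pH 8.0 Tris buffer with BME, BGG, Triton X-100. 10-point dilutions (25 μM-1.3 nM), 45 min at room temperature, citric acid stop, fluorescence 485/535 nm; IC50 by 4-parameter fit.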
Compound `Cc1ccc2c(N)c(C(=O)N[C@H]3COc4c(C#N)c(N5CC6CCC(C5)N6)cc(F)c4C3)sc2n1` [Example 95, 3-amino-N-[(3R)-8-cyano-7-{3,8-diazabicyclo[3.2.1]octan-3-yl}-5-fluoro-3,4-dihydro-2H-1-benzopyran-3-yl]-6-methylthieno[2,3-b]pyridine-2-carboxamide] has an IC50 of 1 to 50 nM. With `Cc1ccc2c(N)c(C(=O)N[C@H]3COc4nc(N5CC6CCC(C5)N6)ccc4C3)sc2n1` [Example 173, 3-amino-N-[(3R)-7-{3,8-diazabicyclo[3.2.1]octan-3-yl]-2H,3H,4H-pyrano[2,3-b]pyridin-3-yl]-6-methylthieno[2,3-b]pyridine-2-carboxamide] the IC50 was 50 to 200 nM. For `COc1nc2sc(C(=O)N[C@H]3CCc4cc(N5C[C@H](OC)[C@@H](N)C5)ccc4C3)c(N)c2cc1F` [Example 135, 3-amino-N-[(2S)-6-[(3S,4S)-3-amino-4-methoxypyrrolidin-1-yl]-1,2,3,4-tetrahydronaphthalen-2-yl]-5-fluoro-6-methoxythieno[2,3-b]pyridine-2-carboxamide], the IC50 was 200 to 2000 nM. `CO[C@@H]1CN(c2ccc3c(c2)OC[C@H](NC(=O)c2sc4nc(C)sc4c2N)C3)C[C@@H]1N` [Example 149, 6-amino-N-[(3R)-7-[(3S,4R)-3-amino-4-methoxypyrrolidin-1-yl]-3,4-dihydro-2H-1-benzopyran-3-yl]-2-methylthieno[2,3-d][1,3]thiazole-5-carboxamide] showed an IC50 of 1 to 50 nM. Work on `Cc1nc2sc(C(=O)N[C@H]3COc4c(F)c(N5CC6CCC(C5)N6)cc(F)c4C3)c(N)c2s1` [Example 98, 6-amino-N-[(3R)-7-{3,8-diazabicyclo[3.2.1]octan-3-yl}-5,8-difluoro-3,4-dihydro-2H-1-benzopyran-3-yl]-2-methylthieno[2,3-d][1, 3]thiazole-5-carboxamide] yielded an IC50 of 1 to 50 nM. For `Cc1ccc2c(N)c(C(=O)N[C@H]3COc4cc(C5CC6COCC(C5)N6)ccc4C3)sc2n1` (stereo partly drawn) [Example 125, 3-amino-6-methyl-N-[(3R)-7-{3-oxa-9-azabicyclo[3.3.1]nonan-7-yl}-3,4-dihydro-2H-1-benzopyran-3-yl]thieno[2,3-b]pyridine-2-carboxamide], the IC50 was 1 to 50 nM. `Cc1ccc2c(N)c(C(=O)N[C@H]3CCc4c(ccc(N5CC6CNCC(C5)O6)c4F)C3)sc2n1` [Example 99, 3-amino-N-[(2S)-5-fluoro-6-{9-oxa-3,7-diazabicyclo[3.3.1]nonan-3-yl}-1,2,3,4-tetrahydronaphthalen-2-yl]-6-methylthieno[2,3-b]pyridine-2-carboxamide] was tested, and the IC50 was 1 to 50 nM. Work on `COC[C@@H]1CN(c2ccc3c(c2)OC[C@H](NC(=O)c2sc4nc(C)ccc4c2N)C3)C[C@@H]1N` [Example 161, 3-amino-N-[(3R)-7-[(3R,4R)-3-amino-4(methoxymethyl)pyrrolidin-1-yl]-3,4-dihydro-2H-1-benzopyran-3-yl]-6-methylthieno[2,3-b]pyridine-2-carboxamide] yielded an IC50 of 1 to 50 nM. Compound `Cc1ccc2c(N)c(C(=O)N[C@H]3COc4c(ccc(N5CC6CNCC(C5)O6)c4F)C3)sc2n1` [Example 105, 3-amino-N-[(3R)-8-fluoro-7-{9-oxa-3,7-diazabicyclo[3.3.1]nonan-3-yl}-3,4-dihydro-2H-1-benzopyran-3-yl]-6-methylthieno[2,3-b]pyridine-2-carboxamide] has an IC50 of 1 to 50 nM. Work on `Cc1ccc2c(N)c(C(=O)N[C@H]3COc4cc(N5CC[C@@H]6CNC[C@@H]65)ccc4C3)sc2n1` [Example 165, N-[(3R)-7-[(3aR,6aR)-octahydropyrrolo[2,3-c]pyrrol-1-yl]-3,4-dihydro-2H-1-benzopyran-3-yl]-3-amino-6-methylthieno[2,3-b]pyridine-2-carboxamide] yielded an IC50 of 1 to 50 nM. `Cc1ccc2c(N)c(C(=O)N[C@H]3COc4cc(N5CCNCC5)cc(F)c4C3)oc2n1` [Example 169, 3-amino-N-[(3R)-5-fluoro-7-(piperazin-1-yl)-3,4-dihydro-2H-1-benzopyran-3-yl]-6-methylfuro[2,3-b]pyridine-2-carboxamide] showed an IC50 of 200 to 2000 nM. `Cc1ccc2c(N)c(C(=O)N[C@H]3COc4nc(N5CC6CNCC(C5)C6(F)F)ccc4C3)sc2n1` [Example 113, 3-amino-N-[(3R)-7-{9 9-difluoro-3,7-diazabicyclo[3.3.1]nonan-3-yl}-2H b,3H,4H-pyrano[2,3-b]pyridin-3-yl]-6-methylthieno[2,3-b]pyridine-2-carboxamide] was tested, and the IC50 was 1 to 50 nM. For `Cc1ccc2c(N)c(C(=O)N[C@H]3CCc4c(ccc(N5CC6CNCC(C5)O6)c4C#N)C3)sc2n1` [Example 102, 3-amino-N-[(2S)-5-cyano-6-{9-oxa-3,7-diazabicyclo[3.3.1]nonan-3-yl}-1,2,3,4-tetrahydronaphthalen-2-yl]-6-methylthieno[2,3-b]pyridine-2-carboxamide], the IC50 was 1 to 50 nM. Compound `Cc1ccc2c(N)c(C(=O)N[C@H]3COc4c(F)c(N5CC6CCC(C5)N6)cc(F)c4C3)oc2n1` [Example 172, 3-amino-N-[(3R)-7-{3,8-diazabicyclo[3.2.1]octan-3-yl}-5,8-difluoro-3,4-dihydro-2H-1-benzopyran-3-yl]-6-methylfuro[2,3-b]pyridine-2-carboxamide] has an IC50 of 200 to 2000 nM. `COC[C@H]1CN(c2ccc3c(c2)OC[C@H](NC(=O)c2sc4nc(C)ccc4c2N)C3)C[C@H]1N` [Example 162, 3-amino-N-[(3R)-7-[(3S,4S)-3-amino-4-(methoxymethyl)pyrrolidin-1-yl]-3,4-dihydro-2H-1-benzopyran-3-yl]-6-methylthieno[2,3-b]pyridine-2-carboxamide] showed an IC50 of 1 to 50 nM. Compound `CO[C@H]1CN(c2cc(F)c3c(c2C#N)OC[C@H](NC(=O)c2sc4nc(C)cnc4c2N)C3)C[C@@H]1N` [Example 174, 7-amino-N-[(3R)-7-[(3S,4S)-3-amino-4-methoxypyrrolidin-1-yl]-8-cyano-5-fluoro-3,4-dihydro-2H-1-benzopyran-3-yl]-3-methylthieno[2,3-b]pyrazine-6-carboxamide] has an IC50 of 200 to 2000 nM. For `Cc1cnc2c(N)c(C(=O)N[C@H]3COc4cc(N5CC6CCC(C5)N6)c(F)c(F)c4C3)sc2n1` [Example 97, 7-amino-N-[(3R)-7-{3,8-diazabicyclo[3.2.1]octan-3-yl]-5,6-difluoro-3,4-dihydro-2H-1-benzopyran-3-yl]-3-methylthieno[2,3-b]pyrazine-6-carboxamide], the IC50 was 1 to 50 nM. With `CCn1ccc2cc(C(=O)N[C@H]3CCc4cc(N5C[C@H](OC)[C@@H](N)C5)ccc4C3)cnc21` [Example 132, N-[(2S)-6-[(3S,4S)-3-amino-4-methoxypyrrolidin-1-yl]-1,2,3,4-tetrahydronaphthalen-2-yl]-1-ethyl-1H-pyrrolo[2,3-b]pyridine-5-carboxamide] the IC50 was 200 to 2000 nM. In the case of `CO[C@H]1CN(c2ccc3c(c2)OC[C@H](NC(=O)c2sc4nc(C)cnc4c2N)C3)C[C@H]1N` [Example 148, 7-amino-N-[(3R)-7-[(3R,4S)-3-amino-4-methoxypyrrolidin-1-yl]-3,4-dihydro-2H-1-benzopyran-3-yl]-3-methylthieno[2,3-b]pyrazine-6-carboxamide], the IC50 is reported as 1 to 50 nM. `CO[C@H]1CN(c2cc3c(cc2C#N)C[C@@H](NC(=O)c2sc4nc(C)cnc4c2N)CO3)C[C@@H]1N` [Example 176, 7-amino-N-[(3R)-7-[(3S,4S)-3-amino-4-methoxypyrrolidin-1-yl]-6-cyano-3,4-dihydro-2H-1-benzopyran-3-yl]-3-methylthieno[2,3-b]pyrazine-6-carboxamide] showed an IC50 of 1 to 50 nM. In the case of `CCO[C@@H]1CN(c2ccc3c(c2)OC[C@H](NC(=O)c2sc4nc(C)ccc4c2N)C3)C[C@@H]1N` [Example 151, 3-amino-N-[(3R)-7-[(3S,4R)-3-amino-4-ethoxypyrrolidin-1-yl]-3,4-dihydro-2H-1-benzopyran-3-yl]-6-methylthieno[2,3-b]pyridine-2-carboxamide], the IC50 is reported as 1 to 50 nM. Compound `Cc1ccc2c(N)c(C(=O)N[C@H]3COc4cc(N5CC6CCC(C5)N6)c(F)cc4C3)sc2n1` [Example 104, 3-amino-N-[(3R)-7-{3,8-diazabicyclo[3.2.1]octan-3-yl]-6-fluoro-3,4-dihydro-2H-1-benzopyran-3-yl]-6-methylthieno[2,3-b]pyridine-2-carboxamide] has an IC50 of 1 to 50 nM.

Reference: patent US11524966B1 (Valo Early Discovery, Inc., priority 2017, dated 2022)
